How the values were obtained:
[1] = Emulsion stability under centrifuging at 6000 r.p.m. (Test 2); format: physicochemical; details: 250 mg in 10 g water added to 90 g standard emulsion, phase separation noted
Method: To evaluate the influence of β-phosphatidyl choline derivatives on emulsion stability, a standard emulsion was prepared having the following composition (Table 2):
The aqueous phase heated to 70°C is slowly added to the oil phase heated to 75°C. Rapid agitation is effected by a Silverson laboratory mixer equipped with an emulsifying head and is continued for about 30 minutes, slowly cooling the formed emulsion to ambient temperature.
250 mg of each of the considered β-lecithins dispersed or dissolved in 10 g of water are added under slow agitation to 90 g of the standard emulsion obtained.
The resultant emulsions are tested for stability by subjecting them to centrifuging at 6000 r.p.m. for 10, 30 and 60 minutes respectively, and by storing them under temperature control at 45°C for 72 hours. In both cases the stability is evaluated by noting any phase separation.

stratum corneum = assay: In vivo hydration tests on human volunteers, Corneometer (Test 3); details: 50 mg cream on volar forearm (20 cm²), average of 10 subjects, lower numbers = higher hydration, before application 241±21; for Measured hydration values, 30': 30 min after application; for Measured hydration values, 150': 150 min after application; for Measured hydration values, 270': 270 min after application
Method: The hydration tests were conducted using a Corneometer laboratory instrument equipped with a capacitive probe able to measure the moisture present on the stratum corneum. To conduct the test, 50 mg of standard cream and cream containing the various synthetic β-lecithins prepared as Examples 1 and 2 are applied to the volar surface of the forearm (20 cm² ) with light circular massage.
The hydration measurements were taken before applying the product and 30 min, 150 min and 270 min after its application. The hydration values are expressed in arbitrary units deriving from electrical impedance measurements on the cutaneous surface. Although the values are relative they are in inverse linear relationship to the absolute water quantity present in the cutaneous layer of the skin (lower numbers correspond to higher hydration).

Structure (SMILES)	Stability under centrifuging at 6000 r.p.m., 10 min ([1]; 10 min)	Stability under centrifuging at 6000 r.p.m., 30 min ([1]; 30 min)	Stability under centrifuging at 6000 r.p.m., 60 min ([1]; 60 min)	Measured hydration values, 30' (stratum corneum) [arbitrary units]	Measured hydration values, 150' (stratum corneum) [arbitrary units]	Measured hydration values, 270' (stratum corneum) [arbitrary units]
CCCCCCCCCCCCCCCC(=O)OCC(COC(=O)CCCCCCCCCCCCCCC)OP(=O)([O-])OCC[N+](C)(C)C [PCS1, 1,3-dipalmitoylglycero-2-phosphoryl choline]	Stable	Stable	Stable	165±10	195±15	213±15
CCCCCCCCCCCCCC(=O)OCC(COC(=O)CCCCCCCCCCCCC)OP(=O)([O-])OCC[N+](C)(C)C [PCS2, 1,3-dimyristoylglycero-2-phosphoryl choline]	–	–	–	147±11	175±10	195±9
CC(C)(C)C(=O)OCC(COC(=O)C(C)(C)C)OP(=O)([O-])OCC[N+](C)(C)C [PCS3, 1,3-dipivaloylglycero-2-phosphoryl choline]	–	–	–	157±7	193±13	206±9
CCCCCCCCCCCCCCCCCC(=O)OCC(COC(=O)CCCCCCCCCCCCCCCCC)OP(=O)([O-])OCC[N+](C)(C)C [PCS4, 1,3-distearoylglycero-2-phosphoryl choline]	–	–	–	132±12	161±11	180±12
COc1cc(C(=O)OCC(COC(=O)c2cc(OC)c(OC)c(OC)c2)OP(=O)([O-])OCC[N+](C)(C)C)cc(OC)c1OC [PCS5, 1,3-di(3,4,5-trimethoxybenzoyl)glycero-2-phosphoryl choline]	–	–	–	124±14	144±16	177±15

Source: patent publication EP0479121A1, “Skin treatment compositions containing beta-phosphatidyl choline derivatives” (FIDIA S.p.A., priority 1990, dated 1992)
